Assay [1] has as its system Paracoccus sp. (4M6). The assay is described as follows: Anti-adhesion test, strain 4M6. In kind it is cell-based. The following applies: Paracoccus, 15 h, read-out: % of adhesion at 200 μM, 4M6. In a few lines:
(§1)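 Stationary-phase bacteria grown in VNSS, diluted in artificial sea water and incubated about 15 h with compound at eight concentrations in triplicate, DMSO up to 2%. Adhered cells stained with SYTO 61 (1 μM). EC50 from a sigmoid fit of % inhibition against log concentration.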

In assay [2] the test system is Pseudoalteromonas lipolytica (TC8). Kind of assay: Anti-adhesion test, strain TC8. In kind it is cell-based. The following applies: Pseudoalteromonas lipolytica. In a few lines: as §1
Assay [3] can be described thus: Gravimetry (weight loss), corrosion inhibition. The note with it: mild steel in 1N HCl. In a few lines: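 Mild steel coupons (2.5×2.0×0.1 cm) immersed in non-de-aerated 1N HCl without or with various inhibitor concentrations, then washed, dried and reweighed; duplicate runs. IE (%) calculated from corrosion rates without (CR^o) and with (CR) inhibitor.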
Assay [4] relates to Pseudoalteromonas ulvae (TC14). Kind of assay: Anti-adhesion test, strain TC14. The format is cell-based. The note with it: Pseudoalteromonas ulvae. In a few lines: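 Stationary-phase TC14 cells grown in VNSS, diluted in artificial seawater and incubated with compound at eight concentrations in triplicate (DMSO ≤2%) for about 15 h. Non-adhered bacteria removed and adhered cells quantified by SYTO 61 (1 μM) staining. EC50 derived from sigmoid fit of % inhibition versus log concentration.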

Assay [5] in a line: Electrochemical impedance spectroscopy, corrosion inhibition. The following applies: 200 ppm; mild steel in 1N HCl; EIS. Here is the method:
The corrosion rates were determined by electrochemical impedance spectroscopy measurements and gravimetry.
The electrochemical measurements were performed on a 273 A potentiostat (EGG/PAR) coupled to a Solartron 1255 frequency response analyser. EIS measurements were carried out with a solution containing 1N HCl in the absence and presence of the tested compound at a concentration of 200 ppm under unstirred conditions, at open circuit potential with a 10 mV rms amplitude perturbation over a 20 mHz-100 kHz frequency range.
EIS data were registered and analysed using Zview software (Scribners Associates, USA).
A conventional three-electrode cell was used. It comprises a platinum foil as auxiliary electrode, a saturated calomel reference electrode (SCE) and a mild steel coupon as the working electrode with a surface area of 15.7 cm^2.
Electrochemical impedance spectroscopic (EIS) studies have been conducted to investigate corrosion inhibition processes of compounds of the invention according to the Electrochemical impedance spectroscopic test method described herein.
The high frequency loop was analyzed in terms of an equivalent circuit involving a parallel combination of Rct and the constant phase element of double layer (CPE). The inhibition efficiency, IE (%), was estimated from the measured Rct values using the following equation: […]

Consider `CN(C)CCOc1ccc(CCn2cc(CNCc3cn(CCc4ccc(OCCN(C)C)c(Br)c4)nn3)nn2)cc1Br` [AS164], for which the activity at 200 µM worked out at 51.7 ± 4.3% in assay [1]; 47.1 ± 1% in assay [2] (15 h, read-out: % of adhesion at 200 μM, TC8); 40.8 ± 5% in assay [4] (15 h, 200 μM). Moreover, the EC50 is 176 ± 3 µM in assay [2] (read-out: EC50 (effective concentration to inhibit 50% of the adhesion), TC8) and 126 ± 21.5 µM in assay [4] (read-out: EC50 (effective concentration to inhibit 50% of the adhesion)). The IE % in assay [3] (0.1 ppm) is reported as 57.10%; in assay [3] (0.3 ppm), 90.49%; in assay [3] (0.5 ppm), 89.20%; in assay [3] (2 ppm), 92.42%; in assay [3] (10 ppm), 97.20%. The “inhibition efficiency from weight loss experiments” value in assay [3] (25-200 ppm) is “greater than 97%”. In addition, the “inhibition efficiency (IE %) from Rct values” in assay [5] was “around 95%”.

(Values after patent US10487071B2, “Bis-triazole compounds with anti-biofilm and anti-corrosion properties” (Université de Toulon, priority 2015, dated 2019).)
